Measurements taken from patent US20240262803A1, “COMPOUNDS, COMPOSITIONS AND METHODS OF TREATING DISORDERS” (Chungdu Anticancer Bioscience Ltd, priority 2021, published 2024).
Like-named read-outs stand apart in the source and are kept apart here.

Tests used:
Assay type in all cases: cell-based
RPEMYC^H2B-GFP cells [1] = experiment: Mechanism-informed phenotypic screening assay (mitotic arrest, polyploidy; GE IN-Cell Analyzer 2000); conditions: 20 nM to 20 μM, 24, 48 or 72 hours, read-out: Mitotic Arrest (≥5%)
[2] = system: colon cancer cell line SW460; experiment: MTT assay of cellular proliferation, SW460; conditions: Homo sapiens, SW480; read-out: EC50: Concentration that inhibits 50% of proliferation
Protocol: (§1) Six lung cancer cell lines (NCI-H23, NCI-H460, NCI-H596, NCI-H2170, Calu-6 and A549), two colon cancer cell lines (HCT116 and SW460), one breast cancer cell line MDA-MB-231, one gastric cancer cell line NCI-N87, one prostate cancer cell line DU145, one cervical cancer cell line Hela, and one glioblastoma cell line T98G were obtained from ATCC. The T2 HCC cell line was derived from a mouse liver cancer model initiated by a transgene of MYC (Reference). All cell lines were cultured in DMEM (Gibco, Cleveland, TN, USA) supplemented with 5% fetal bovine serum (Gibco), penicillin (100 U/mL)-streptomycin (100 μg/mL) (Gibco, Cat. No. 15140-122), 2 mM L-glutamine (Gibco, 200 mM solution, Cat. No. 25030081), and 1 mM sodium pyruvate (Gibco, 100 mM solution, Cat. No. 11360070) at 37° C. in a humidified incubator that was maintained at 5% CO2.
(§2) The MTT assay measures cellular metabolic activity as a proxy for cell viability and involves the conversion of the water-soluble yellow dye MTT [3-(4,5-dimethylthiazol-2-yl)-2,5-diphenyltetrazolium bromide] into an insoluble purple formazan by the action of mitochondrial reductase. Formazan is then solubilized and its concentration is determined by measuring the optical density (OD) value at a wavelength of 570 nm. The value is in proportional to the number of live cells with excellent linearity up to ˜10^6 cells per well. The MTT assay was used to determine the EC50 value, the concentration of a compound that leads to 50% inhibition of cellular proliferation. Briefly, cells were split when growing to the mid-Log phase. Cells in 100 μL of culture medium were seeded into each well of 96-well microplates and cultivated for 15˜24 hours to reach a confluence of 20˜30% and were then exposed to drugs at concentrations ranging from 1 nM to 10 μM. At the endpoint, 20 μL of a MTT stock solution in DMSO (5 mg/mL) was added to each well that contains […] of DMEM. The microplates were left in the cell culture incubator for 3˜4 h before subjected to solubilization and determination of formazan at A570 in a microplate reader (BioTek ELX808iu). […] Therefore, these compounds might hold a broad utility in the treatment of a large variety of human malignancies.

[3] = system: liver cancer cell line T2 HCC; experiment: Minimal effective concentration that elicits polyploidy, T2 HCC; conditions: Mus musculus, read-out: MECP: Minimal effective concentration that elicits polyploidy
[4] = system: breast cancer cell line MDA-MB-231; experiment: MTT assay of cellular proliferation, MDA-MB-231; conditions: Homo sapiens, read-out: EC50: Concentration that inhibits 50% of proliferation
Protocol: as §1, §2

[5] = system: cervical cancer cell line Hela; experiment: MTT assay of cellular proliferation, Hela; conditions: Homo sapiens, read-out: EC50: Concentration that inhibits 50% of proliferation
Protocol: as §1, §2

[6] = system: gastric cancer cell line NCI-N87; experiment: Minimal effective concentration that elicits polyploidy, NCI-N87; conditions: Homo sapiens, read-out: MECP: Minimal effective concentration that elicits polyploidy
[7] = system: gastric cancer cell line NCI-N87; experiment: MTT assay of cellular proliferation, NCI-N87; conditions: Homo sapiens, read-out: EC50: Concentration that inhibits 50% of proliferation
Protocol: as §1, §2

[8] = system: liver cancer cell line T2 HCC; experiment: MTT assay of cellular proliferation, T2 HCC; conditions: Mus musculus, read-out: EC50: Concentration that inhibits 50% of proliferation
Protocol: as §1, §2

[9] = system: cervical cancer cell line Hela; experiment: Minimal effective concentration that elicits polyploidy, Hela; conditions: Homo sapiens, read-out: MECP: Minimal effective concentration that elicits polyploidy
[10] = system: lung cancer cell line NCI-H23; experiment: MTT assay of cellular proliferation, NCI-H23; conditions: Homo sapiens, read-out: EC50: Concentration that inhibits 50% of proliferation
Protocol: as §1, §2

SW480 = experiment: Minimal effective concentration that elicits polyploidy, SW480; conditions: Homo sapiens, read-out: MECP: Minimal effective concentration that elicits polyploidy
[11] = system: colon cancer cell line HCT116; experiment: MTT assay of cellular proliferation, HCT116; conditions: Homo sapiens, HCT-116, read-out: EC50: Concentration that inhibits 50% of proliferation
Protocol: as §1, §2

[12] = system: lung cancer cell line A549; experiment: Minimal effective concentration that elicits polyploidy, A549; conditions: Homo sapiens, read-out: MECP: Minimal effective concentration that elicits polyploidy
[13] = system: colon cancer cell line HCT116; experiment: Minimal effective concentration that elicits polyploidy, HCT116; conditions: Homo sapiens, HCT-116, read-out: MECP: Minimal effective concentration that elicits polyploidy
[14] = system: breast cancer cell line MDA-MB-231; experiment: Minimal effective concentration that elicits polyploidy, MDA-MB-231; conditions: Homo sapiens, read-out: MECP: Minimal effective concentration that elicits polyploidy
RPEMYC^H2B-GFP cells [15] = experiment: Mechanism-informed phenotypic screening assay (mitotic arrest, polyploidy; GE IN-Cell Analyzer 2000); conditions: 20 nM to 20 μM, 24, 48 or 72 hours, read-out: Min. Effective conc. for polyploidy (≥5%)
Method in brief: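 RPEMYC^H2B-GFP cells expressing Histone 2B-EGFP were treated with compounds at 20 nM to 20 μM. Mitotic arrest and DNA content were imaged at 24, 48 or 72 h. Minimal effective concentrations eliciting polyploidy are given as letter bins.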

[16] = system: lung cancer cell line A549; experiment: MTT assay of cellular proliferation, A549; conditions: Homo sapiens, read-out: EC50: Concentration that inhibits 50% of proliferation
Protocol: as §1, §2

[17] = system: lung cancer cell line NCI-H23; experiment: Minimal effective concentration that elicits polyploidy, NCI-H23; conditions: Homo sapiens, read-out: MECP: Minimal effective concentration that elicits polyploidy

Row | Compound | minimal effective concentration (RPEMYC^H2B-GFP cells [1]) | EC50 [2] | minimal effective concentration [3] | EC50 [4] | EC50 [5] | minimal effective concentration [6] | EC50 [7] | EC50 [8] | minimal effective concentration [9] | EC50 [10] | minimal effective concentration (SW480) | EC50 [11] | minimal effective concentration [12] | minimal effective concentration [13] | minimal effective concentration [14] | minimal effective concentration (RPEMYC^H2B-GFP cells [15]) | EC50 [16] | minimal effective concentration [17]
1 | COc1cc(Oc2ncccc2-c2ccncc2)cc(-n2cncn2)c1 [Compound 12, 2-(3-methoxy-5-(1H-1,2,4-triazol-1-yl)phenoxy)-3,4′-bipyridine] | 1 µM | 1 to 1000 nM | 0.001 to 1 µM | 1 to 1000 nM | 1 to 1000 nM | 0.001 to 1 µM | 1 to 1000 nM | 1 to 1000 nM | 0.001 to 1 µM | 1 to 1000 nM | 0.001 to 1 µM | 1 to 1000 nM | 0.001 to 1 µM | 0.001 to 1 µM | 0.001 to 1 µM | 1 µM | 1 to 1000 nM | 0.001 to 1 µM
2 | CNC(=O)c1cc(Oc2ncccc2-c2ccncc2)cc(OC(F)(F)F)c1 [Compound 7, 3-([3,4′-bipyridin]-2-yloxy)-N-methyl-5-(trifluoromethoxy)benzamide] | 1 µM | 1 to 1000 nM | 0.001 to 1 µM | 1 to 1000 nM | 1 to 1000 nM | 0.001 to 1 µM | 1 to 1000 nM | 1 to 1000 nM | 0.001 to 1 µM | 1 to 1000 nM | 0.001 to 1 µM | 1 to 1000 nM | 0.001 to 1 µM | 0.001 to 1 µM | 0.001 to 1 µM | 1 µM | 1 to 1000 nM | 0.001 to 1 µM
3 | COc1cc(Oc2ncccc2-c2ccnc(OC)c2)cc(-n2cccn2)c1 [Compound 31, 2′-methoxy-2-(3-methoxy-5-(1H-pyrazol-1-yl)phenoxy)-3,4′-bipyridine] | 1 µM | 1 to 1000 nM | 0.001 to 1 µM | 1 to 1000 nM | 1 to 1000 nM | 0.001 to 1 µM | 1 to 1000 nM | 1 to 1000 nM | 0.001 to 1 µM | 1 to 1000 nM | 0.001 to 1 µM | 1 to 1000 nM | 0.001 to 1 µM | 0.001 to 1 µM | 0.001 to 1 µM | 1 µM | 1 to 1000 nM | 0.001 to 1 µM
4 | COc1cc(NC(C)=O)cc(Oc2ncccc2-c2ccncc2)c1 [Compound 13, N-(3-([3,4′-bipyridin]-2-yloxy)-5-methoxyphenyl)acetamide] | 1 µM | 1 to 1000 nM | 0.001 to 1 µM | 1 to 1000 nM | 1 to 1000 nM | 0.001 to 1 µM | 1 to 1000 nM | 1 to 1000 nM | 0.001 to 1 µM | 1 to 1000 nM | 0.001 to 1 µM | 1 to 1000 nM | 0.001 to 1 µM | 0.001 to 1 µM | 0.001 to 1 µM | 1 µM | 1 to 1000 nM | 0.001 to 1 µM
5 | COc1cc(Oc2ncccc2-c2ccnc(N)n2)cc(-n2cccn2)c1 [Compound 26, 4-(2-(3-methoxy-5-(1H-pyrazol-1-yl)phenoxy)pyridin-3-yl)pyrimidin-2-amine] | 1 µM | 1 to 1000 nM | 0.001 to 1 µM | 1 to 1000 nM | 1 to 1000 nM | 0.001 to 1 µM | 1 to 1000 nM | 1 to 1000 nM | 0.001 to 1 µM | 1 to 1000 nM | 0.001 to 1 µM | 1 to 1000 nM | 0.001 to 1 µM | 0.001 to 1 µM | 0.001 to 1 µM | 1 µM | 1 to 1000 nM | 0.001 to 1 µM
6 | COc1cc(OC)cc(Oc2nccnc2-c2ccnc(OC)c2)c1 [Compound 35, 2-(3,5-dimethoxyphenoxy)-3-(2-methoxypyridin-4-yl)pyrazine] | 1 µM | 1 to 1000 nM | 0.001 to 1 µM | 1 to 1000 nM | 1 to 1000 nM | 0.001 to 1 µM | 1 to 1000 nM | 1 to 1000 nM | 0.001 to 1 µM | 1 to 1000 nM | 0.001 to 1 µM | 1 to 1000 nM | 0.001 to 1 µM | 0.001 to 1 µM | 0.001 to 1 µM | 1 µM | 1 to 1000 nM | 0.001 to 1 µM
7 | CNC(=O)c1cc(OC)cc(Oc2ncccc2-c2ccnc(Cl)c2)c1 [Compound 45, 3-((2′-chloro-[3,4′-bipyridin]-2-yl)oxy)-5-methoxy-N-methylbenzamide] | 1 µM | 1 to 1000 nM | 0.001 to 1 µM | 1 to 1000 nM | 1 to 1000 nM | 0.001 to 1 µM | 1 to 1000 nM | 1 to 1000 nM | 0.001 to 1 µM | 1 to 1000 nM | 0.001 to 1 µM | 1 to 1000 nM | 0.001 to 1 µM | 0.001 to 1 µM | 0.001 to 1 µM | 1 µM | 1 to 1000 nM | 0.001 to 1 µM
8 | CNC(=O)c1cc(Oc2ncccc2-c2ccnc(C)c2)cc(C(F)(F)F)c1 [Compound 37, N-methyl-3-((2′-methyl-[3,4′-bipyridin]-2-yl)oxy)-5-(trifluoromethyl)benzamide] | 1 µM | 1 to 1000 nM | 0.001 to 1 µM | 1 to 1000 nM | 1 to 1000 nM | 0.001 to 1 µM | 1 to 1000 nM | 1 to 1000 nM | 0.001 to 1 µM | 1 to 1000 nM | 0.001 to 1 µM | 1 to 1000 nM | 0.001 to 1 µM | 0.001 to 1 µM | 0.001 to 1 µM | 1 µM | 1 to 1000 nM | 0.001 to 1 µM
9 | COc1cc(OC)cc(Oc2ncccc2-c2cc(C)ncn2)c1 [Compound 63, 4-(2-(3,5-dimethoxyphenoxy)pyridin-3-yl)-6-methylpyrimidine] | 1 µM | 1 to 1000 nM | 0.001 to 1 µM | 1 to 1000 nM | 1 to 1000 nM | 0.001 to 1 µM | 1 to 1000 nM | 1 to 1000 nM | 0.001 to 1 µM | 1 to 1000 nM | 0.001 to 1 µM | 1 to 1000 nM | 0.001 to 1 µM | 0.001 to 1 µM | 0.001 to 1 µM | 1 µM | 1 to 1000 nM | 0.001 to 1 µM
